# Experiments:
# [1] = Inhibitory activity against carbonic anhydrase
# [2] = Diuretic activity was determined; assay type: ADME, Urine
SMILES,Log Ki [1],Log 1/C [2]
CC(=O)c1ccc(S(N)(=O)=O)cc1,-5.95,0.39
COc1ccc(S(N)(=O)=O)cc1,-5.34,–
Cc1ccccc1S(N)(=O)=O,-4.79,-0.3
N#Cc1ccc(S(N)(=O)=O)cc1,-5.95,1
NS(=O)(=O)c1ccccc1[N+](=O)[O-],-5.07,-0.3
NS(=O)(=O)c1ccc(Cl)c(Cl)c1,-6.39,0.24
NS(=O)(=O)c1cccc(Cl)c1,-5.63,0.29
NS(=O)(=O)c1ccccc1 [BENZENESULFONAMIDE],-5.21,0.13
NS(=O)(=O)c1ccc(Cl)cc1 [P-CHLOROBENZENESULFONAMIDE],-5.72,–
Cc1ccc(S(N)(=O)=O)cc1 [P-TOLUENESULFONAMIDE],-5.42,0.18
Nc1ccc(S(N)(=O)=O)cc1 [SULFANILAMIDE],–,-0.3

# The next lines start with the values.
Log Ki [1],Log 1/C [2],SMILES
-5.3,0.17,Cc1cccc(S(N)(=O)=O)c1
-4.87,-0.03,CNc1ccc(S(N)(=O)=O)cc1
-5.92,0.26,NS(=O)(=O)c1ccc(Br)cc1
-6.85,0.57,NS(=O)(=O)c1ccc([N+](=O)[O-])c(C(F)(F)F)c1
-5.88,0.67,NS(=O)(=O)c1cccc([N+](=O)[O-])c1
-5.52,-0.3,NS(=O)(=O)c1ccccc1Cl
-6.76,0.32,NS(=O)(=O)c1ccc(Cl)c([N+](=O)[O-])c1
